# Counter-ions that a name gives are not always drawn.
# Tests used:
# [1] = tested on: amphetamine-induced stereotypy; assay: Antagonism of amphetamine-induced stereotypy in rats; type: in vivo; conditions: 3 hours
# Method: (§1) The inhibitory activity of the compounds of the invention with respect to apomorphine- or amphetamine-induced stereotypy in rats was assessed using the scale of scoring of stereotyped movements described by Quinton R. M. and Halliwell G. in Nature (1963), 200, p. 178-179.
# (§2) Apomorphine or amphetamine was administered to the animals intraperitoneally at a dose of 1.5 mg.kg^-1. The percentage inhibition (-) or potentiation (+) of the stereotypy score (% ISS) shown in Tables IV and V for apomorphine corresponds to a measurement time of 30 minutes. In contrast, the percentage inhibition of the stereotypy score shown in Table VI for amphetamine corresponds to a measurement time of 3 hours.
# (§3) (s=significant difference, p<0.05).
# [2] = tested on: apomorphine-induced stereotypy; assay: Antagonism of apomorphine-induced stereotypy in rats; type: in vivo; conditions: Rattus norvegicus, ip, 0.5 h, rats, apomorphine 1.5 mg.kg^-1 i.p., 30 minutes, read-out: % ISS (inhibition (-) or potentiation (+) of the stereotypy score)
# Method: as §1
# as §2, with “hours. […]” for “hours.”
# [3] = tested on: apomorphine-induced hypothermia; assay: Antagonism with respect to apomorphine-induced hypothermia in mice; type: in vivo; conditions: mice, apomorphine 1 mg.kg^-1 s.c., after 2 hours; for % antagonism of hypothermia: hydrochloride
# Method: Testing for an antagonism with respect to apomorphine-induced hypothermia in mice was performed according to the method described by CHERMAT R. and PONCELET M. in J. Pharmac. (1983), 14, No. 1, p. 93-97. The dose of apomorphine administered subcutaneously was 1 mg.kg^-1. Tables VII and VIII show the percentage antagonism of the hypothermia observed after 2 hours.
# [4] = tested on: reserpine-induced hypothermia; assay: Antagonism of reserpine-induced hypothermia; type: in vivo, Swiss CD male mice; conditions: mice, reserpine 2.5 mg.kg^-1 i.p.
# Method: (§4) The antidepressant effects of the compounds of the invention were investigated by assessing the antagonism of reserpine-induced hypothermia and the antagonism of the ponto-geniculo-occipital waves induced by the compound Ro4-1284 in cats.
# The study is carried out on Swiss CD male mice (27-28 g). After distribution into groups of 10 animals each, reserpine is injected intraperitoneally at a dose of 2.5 mg.kg^-1. Three hours later, the compounds undergoing trial are administered intraperitoneally. The rectal temperature of the animals is measured one hour and two hours after the second treatment, and compared with the initial temperature To of these same animals, measured immediately before the administration of the compounds undergoing trial.
# [5] = tested on: apomorphine-induced rearing-up; assay: Antagonism of apomorphine-induced rearing-up behavior in mice; type: in vivo; conditions: mice, apomorphine 0.75 mg.kg^-1 s.c.; for % inhibition of rearing-up: hydrochloride
# Method: Studied in the test of antagonism of apomorphine-induced rearing-up following the subcutaneous administration of a dose of 0.75 mg.kg^-1 of this substance in mice, the compounds of general formula I act in a clear-cut manner at doses greater than or equal to 2.5 mg.kg^-1 (i.p.). The same results are observed when the compounds of general formula I are administered orally at a dose of 20 mg.kg^-1. The activity of the compounds was assessed according to the method described by Protais P, Costentin J and Schwartz J. C. in Psychopharmacology (1976), 50, p. 1-6.
# as §3
# [6] = tested on: ponto-geniculo-occipital (P.G.O.) waves induced by Ro4-1284; assay: Antagonism of the ponto-geniculo-occipital (P.G.O.) waves induced by Ro4-1284; type: in vivo; conditions: Felis catus, iv, cats, i.v., read-out: ED50 (effective dose inhibiting by 50% the number of P.G.O. waves)
# Method: as §4
# This study was performed according to the method of Ruch-Monachon M. A., Jalfre M. and Haefely W. described in Arch. Int. Pharm. Therap., (1976), 219, No. 2, p. 251-346, and it enabled the effective dose (i.v) inhibiting by 50% (ED50) the number of P.G.O waves to be assessed.
# [7] = tested on: isolation-induced aggression; assay: Antiaggressive effects: isolation-induced aggression in mice; type: in vivo; conditions: isolated mice, i.p., hydrochloride
# Text: (§5) The antiaggressive effects of the compounds of the invention were investigated by two methods, one of them testing for an inhibition of aggressive behavior in peviously isolated mice (Yen C. Y., Stanger A. L., and Millman N, Arch. Int. Pharmacodyn. Therap. (1959), 123, p. 179-185), and the other in isolated and bulbectomized rats (Garattini S. and Sigg E. B. "Aggressive Behaviour" p. 47-55 Ed. Excerpta Medica Found., Amsterdam, 1969).
# (§6) (Tables IX and X, s=significant, p<0.05).
# [8] = tested on: interoceptive stimulus of apomorphine; assay: Drug discrimination in rats (generalization with apomorphine); type: in vivo; conditions: 2.5 mg.kg^-1 i.p., 30 minutes before test, hydrochloride
# Method: Rats were trained to discriminate between the effect of the interoceptive stimulus of apomorphine (0.2 mg.kg^-1 i.p.) and that of physiological saline, according to a principle described by Colpaert F. in "Drug discrimination application in C.N.S. Pharmacology" Ed. Elsevier Biomedical 1982, Amsterdam. […]
# Under the experimental conditions employed, the behavior shown by the animals coincides with that noted in the case of administration of apomorphine.
# [9] = tested on: aggression of isolated, bulbectomized rats; assay: Antiaggressive effects: aggression of isolated, bulbectomized rats; type: in vivo; conditions: i.p., 2.5 mg.kg^-1, hydrochloride
# Text: as §5, §6
structure (smiles),measurement,setting,value
"O=C(O)CCCCCCNC1CCc2cc3c(cc2C1)OCC3 (racemic) [Example 12, dl-7-{N-(2,3,5,6,7,8-Hexahydronaphtho[2,3-b]furan-7-yl)amino}heptanoic acid hydrochloride]",% ISS (inhibition (-) or potentiation (+) of the stereotypy score),"[1]; i.p. dose 5 mg.kg^-1, amphetamine 1.5 mg.kg^-1 i.p.",+11%
same,% ISS (inhibition (-) or potentiation (+) of the stereotypy score),"[1]; i.p. dose 10 mg.kg^-1, amphetamine 1.5 mg.kg^-1 i.p.",+14%
same,change in vivo at 10 mg/kg,[2]; i.p. dose 10 mg.kg^-1,19%
same,change in vivo at 20 mg/kg,[2]; i.p. dose 20 mg.kg^-1,-3%
same,change in vivo at 10 mg/kg,"[3]; Mus musculus, ip, i.p. dose 10, read-out: % antagonism of hypothermia",-4%
same,change in vivo at 20 mg/kg,"[3]; Mus musculus, ip, i.p. dose 20, read-out: % antagonism of hypothermia",-2%
same,% inhibition of hypothermia,[4]; 5 mg.kg^-1 i.p.,-23%
same,% inhibition of hypothermia,[4]; 10 mg.kg^-1 i.p.,-45%
same,% inhibition of hypothermia,[4]; 20 mg.kg^-1 i.p.,-18%
same,change in vivo at 10 mg/kg,"[5]; Mus musculus, ip, i.p. dose 10 mg.kg^-1, read-out: % inhibition of rearing-up",-17%
same,change in vivo at 20 mg/kg,"[5]; Mus musculus, ip, i.p. dose 20 mg.kg^-1, read-out: % inhibition of rearing-up",-20%
same,ED50,[6],> 2.52 mg/kg
"NC1CCc2cc3c(cc2C1)OCC3 (stereo not drawn) [Example 3, d-7-Amino-2,3,5,6,7,8-hexahydronaphtho[2,3-b]furan hydrochloride]",% of pairs of mice showing no sign of fighting,[7]; 2.5 mg.kg^-1,56%
same,% of pairs of mice showing no sign of fighting,[7]; 5 mg.kg^-1,78%
same,% of animals which generalize,[8],88%
same,Number of animals showing the effect of generalization with apomorphine,[8],8/9
same,% antagonism of hypothermia,[3]; i.p. dose 2.5,-72%
same,% antagonism of hypothermia,[3]; i.p. dose 5,-79%
same,% antagonism of hypothermia,[3]; i.p. dose 10,-91%
same,% antagonism of hypothermia,[3]; i.p. dose 20,-86%
same,% of rats rendered non-aggressive,[9],64%
same,% inhibition of rearing-up,[5]; i.p. dose 10 mg.kg^-1,-72%
same,% inhibition of rearing-up,[5]; i.p. dose 20 mg.kg^-1,-79%
same,ED50,[6],0.13 mg/kg

# Reference: patent US4863951A, “Pharmacologically active amino-5,6,7,8-tetrahydronaphtho [2,3-B] furan compounds” (ADIR Et Cie, priority 1987, dated 1989)
